According to ChEMBL document CHEMBL5143570, “Development of naringenin-O-carbamate derivatives as multi-target-directed liagnds for the treatment of Alzheimer's disease” (Bioorg Med Chem Lett, 2022):
pIC50: −log10 of the molar value. Calls of active or inactive are those of the source. The calls are words filed in the database; no cut-off is given here.

Assays:
[1] = Effect on tau protein expression in pRK5-GFP-Tau plasmid transfected mouse HT-22 cells assessed as reduction in fluorescence intensity at 10 uM incubated for 24 hrs by fluorescence microscopic analysis (reference value: 36.8); format: functional
[2] = Inhibition of LPS-induced TNFalpha production in mouse BV-2 cells assessed as TNFalpha level at 10 uM by ELISA analysis; format: functional
[3] = Inhibition of LPS-induced NO production in mouse BV-2 cells at 10 uM by Griess reaction method relative to control; format: functional
[4] = Effect on APP protein expression in pEGFP-N1-APP plasmid transfected mouse HT-22 cells assessed as decrease in fluorescence intensity at 10 uM incubated for 24 hrs by fluorescence microscopic analysis (reference value: 30.7); format: functional
HT-22 [5] = test: Effect on tau protein expression in pRK5-GFP-Tau P301L plasmid transfected mouse HT-22 cells assessed as fluorescence intensity by measuring decrease in GFP level by western blot analysis; format: functional, cell-based; conditions: dose 5-20 µM, DDE = dose-dependent effect
BV-2 = test: Cytotoxicity against mouse BV-2 cells assessed as increase in cell viability at 5 to 10 uM by MTT assay; format: toxicity, cell-based; conditions: bv-2, 10 µM, dose 5-10 µM
PC-12 [6] = test: Cytotoxicity against rat PC-12 cells assessed as reduction in cell viability measured upto 40 uM incubated for 72 hrs by MTT assay; format: toxicity, cell-based; conditions: pc-12, 72 h
[7] = Inhibition of LPS-induced NO production in mouse BV-2 cells at 5 uM by Griess reaction method relative to control; format: functional
HT-22 [8] = test: Effect on APP protein expression in pEGFP-N1-APP plasmid transfected mouse HT-22 cells assessed as fluorescence intensity by measuring decrease in GFP level incubated for 24 hrs by western blot analysis; format: functional, cell-based; conditions: dose 5-20 µM, DDE = dose-dependent effect
[9] = biological target: Amyloid-beta precursor protein (Homo sapiens) (UniProt P05067); test: Inhibition of Cu2+-induced amyloid beta (1 to 42) (unknown origin) aggregation at 25 uM by thioflavin-T fluorescence method relative to control
Chain of Amyloid-beta precursor protein (Homo sapiens) (P05067 whole entry): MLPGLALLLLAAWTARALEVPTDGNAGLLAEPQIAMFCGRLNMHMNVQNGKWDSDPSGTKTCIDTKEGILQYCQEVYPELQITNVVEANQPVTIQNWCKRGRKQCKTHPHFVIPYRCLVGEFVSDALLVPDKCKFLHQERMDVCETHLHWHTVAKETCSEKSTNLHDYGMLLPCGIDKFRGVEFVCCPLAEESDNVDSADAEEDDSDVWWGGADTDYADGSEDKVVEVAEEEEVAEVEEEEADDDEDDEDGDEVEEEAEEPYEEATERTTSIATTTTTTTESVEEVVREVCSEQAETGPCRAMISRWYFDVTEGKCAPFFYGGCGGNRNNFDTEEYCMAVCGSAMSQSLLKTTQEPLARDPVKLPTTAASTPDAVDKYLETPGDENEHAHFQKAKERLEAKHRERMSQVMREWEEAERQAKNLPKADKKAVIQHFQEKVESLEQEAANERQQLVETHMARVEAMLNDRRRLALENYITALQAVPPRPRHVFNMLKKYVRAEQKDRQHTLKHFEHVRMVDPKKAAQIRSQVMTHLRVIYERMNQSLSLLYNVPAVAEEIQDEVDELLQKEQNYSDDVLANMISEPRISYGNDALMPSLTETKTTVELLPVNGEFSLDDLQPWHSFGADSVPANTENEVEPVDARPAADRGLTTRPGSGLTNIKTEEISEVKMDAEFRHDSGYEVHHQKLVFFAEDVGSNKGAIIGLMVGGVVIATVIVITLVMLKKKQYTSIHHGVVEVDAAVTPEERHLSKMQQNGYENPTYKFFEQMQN

[10] = biological target: Amyloid-beta precursor protein (Homo sapiens) (UniProt P05067); test: Inhibition of amyloid beta (1 to 42 ) (unknown origin) self-induced aggregation at 25 uM by thioflavin-T fluorescence method relative to control
Rattus norvegicus = species: Rattus norvegicus; test: Selectivity index, ratio of IC50 for inhibition of rat serum butyrylcholine esterase to IC50 for inhibition of rat cortex AChE
L02 [11] = test: Hepatoprotective activity against H2O2-induced cytotoxicity in human L02 cells assessed as increase in cell viability at 10 uM by MTT assay; format: functional
PC-12 [12] = test: Neuroprotective activity against H2O2-induced cytotoxicity in rat PC-12 cells assessed as increase in cell viability at 10 uM by MTT assay relative to control; format: functional
L02 [13] = test: Hepatoprotective activity against H2O2-induced cytotoxicity in human L02 cells assessed as increase in cell viability at 20 uM by MTT assay; format: functional
L02 [14] = test: Cytotoxicity against human L02 cells assessed as decrease in cell viability measured upto 20 uM by MTT assay; format: toxicity, cell-based; conditions: l02, 20 µM
[15] = biological target: Amyloid-beta precursor protein (Homo sapiens) (UniProt P05067); test: Disaggregation of Cu2+-induced amyloid beta (1 to 42) (unknown origin) aggregation at 25 uM by thioflavin-T fluorescence method relative to control
[16] = Metal chelating activity assessed as Cu2+-compound complex formation by measuring maximum absorption wavelength shift in the presence of CuCl2 by UV-visible spectrometric analysis
[17] = Inhibition of LPS-induced TNFalpha production in mouse BV-2 cells assessed as TNFalpha level at 5 uM by ELISA analysis relative to control; format: functional
Homo sapiens = species: Homo sapiens; test: Selectivity index, ratio of IC50 for inhibition of human serum BuChE to IC50 for inhibition of human erythrocyte AChE
[18] = Inhibition of LPS-induced TNFalpha production in mouse BV-2 cells assessed as TNFalpha level at 5 uM by ELISA analysis; format: functional
Acetylcholinesterase = biological target: T1, Acetylcholinesterase (Rattus norvegicus, UniProt P37136); test: Inhibition of rat cortex AChE using acetylthiocholine as substrate incubated for 15 mins by DTNB reagent based Ellman's method; format: tissue-based
T1 sequence (P37136 whole entry): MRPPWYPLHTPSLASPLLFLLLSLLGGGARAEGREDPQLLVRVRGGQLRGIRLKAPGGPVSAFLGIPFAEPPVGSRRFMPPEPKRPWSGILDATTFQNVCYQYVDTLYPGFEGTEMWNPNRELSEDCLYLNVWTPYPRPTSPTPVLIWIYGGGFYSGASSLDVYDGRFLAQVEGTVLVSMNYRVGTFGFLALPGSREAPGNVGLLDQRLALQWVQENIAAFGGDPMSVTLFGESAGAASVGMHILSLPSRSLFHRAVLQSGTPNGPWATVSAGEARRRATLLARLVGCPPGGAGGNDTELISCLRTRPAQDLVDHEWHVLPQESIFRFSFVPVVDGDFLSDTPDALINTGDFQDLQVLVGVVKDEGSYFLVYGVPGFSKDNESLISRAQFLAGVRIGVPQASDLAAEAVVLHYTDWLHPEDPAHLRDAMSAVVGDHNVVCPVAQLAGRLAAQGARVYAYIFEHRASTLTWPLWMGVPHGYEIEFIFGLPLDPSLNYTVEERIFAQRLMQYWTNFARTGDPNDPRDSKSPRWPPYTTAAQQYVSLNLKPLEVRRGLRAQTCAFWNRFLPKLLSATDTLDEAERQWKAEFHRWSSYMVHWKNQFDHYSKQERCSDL

HT-22 [19] = test: Effect on tau protein expression in pRK5-GFP-Tau plasmid transfected mouse HT-22 cells assessed as fluorescence intensity by measuring decrease in GFP level incubated for 24 hrs by western blot analysis; format: functional, cell-based; conditions: dose 5-20 µM, DDE = dose-dependent effect
[20] = Effect on tau protein expression in pRK5-GFP-Tau plasmid transfected mouse HT-22 cells assessed as reduction in fluorescence intensity at 20 uM incubated for 24 hrs by fluorescence microscopic analysis (reference value: 36.8); format: functional
[21] = Effect on tau protein expression in pRK5-GFP-Tau plasmid transfected mouse HT-22 cells assessed as reduction in fluorescence intensity at 5 uM incubated for 24 hrs by fluorescence microscopic analysis (reference value: 36.8); format: functional
[22] = Effect on tau protein expression in pRK5-GFP-Tau P301L plasmid transfected mouse HT-22 cells assessed as reduction in fluorescence intensity at 5 uM by fluorescence microscopic analysis (reference value: 35.0); format: functional
[23] = Permeability of compound at 100 ug/mL by PAMPA-BBB assay
Cholinesterase = Cholinesterase (Homo sapiens, UniProt P06276); test: Inhibition of human serum BuChE using butyrylthiocholine as substrate incubated for 15 mins by DTNB reagent based Ellman's method; format: cell-free
Chain of Cholinesterase (P06276 whole entry): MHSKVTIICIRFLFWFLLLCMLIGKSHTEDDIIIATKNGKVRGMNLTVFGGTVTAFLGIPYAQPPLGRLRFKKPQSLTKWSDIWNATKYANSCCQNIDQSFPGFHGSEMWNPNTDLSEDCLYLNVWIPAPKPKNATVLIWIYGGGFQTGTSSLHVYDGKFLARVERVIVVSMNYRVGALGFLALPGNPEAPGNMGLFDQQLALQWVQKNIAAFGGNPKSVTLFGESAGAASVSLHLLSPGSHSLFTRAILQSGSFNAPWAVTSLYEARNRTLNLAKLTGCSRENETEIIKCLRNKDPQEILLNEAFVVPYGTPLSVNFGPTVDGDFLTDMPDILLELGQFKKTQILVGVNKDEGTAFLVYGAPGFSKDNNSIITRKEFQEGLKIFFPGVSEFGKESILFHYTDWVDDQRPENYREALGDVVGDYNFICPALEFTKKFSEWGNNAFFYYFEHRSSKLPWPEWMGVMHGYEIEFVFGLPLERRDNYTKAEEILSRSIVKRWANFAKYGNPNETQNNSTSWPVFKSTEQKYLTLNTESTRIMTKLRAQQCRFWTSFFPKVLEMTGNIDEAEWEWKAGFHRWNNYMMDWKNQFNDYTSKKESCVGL

[24] = Effect on tau protein expression in pRK5-GFP-Tau P301L plasmid transfected mouse HT-22 cells assessed as reduction in fluorescence intensity at 10 uM by fluorescence microscopic analysis (reference value: 35.0); format: functional
[25] = Inhibition of LPS-induced TNFalpha production in mouse BV-2 cells assessed as TNFalpha level at 10 uM by ELISA analysis relative to control; format: functional
[26] = Cytotoxicity against mouse HT-22 cells assessed as reduction in cell viability by MTT assay; format: toxicity, cell-based

## CCN(C)C(=O)Oc1ccc(C2CC(=O)c3c(O)cc(OC(=O)N(C)CC)cc3O2)cc1 (stereo unspecified)
[1]
  Flu intensity: 19
[2]
  Activity: 532 pg/mL
[3]
  inhibition at 10 µM: 55.6%
[4]
  Flu intensity: 15.5
HT-22 [5]
  Activity: Dde
BV-2
  Activity: Non-Toxic
PC-12 [6]
  Activity: Non-Toxic
[7]
  inhibition at 5 µM: 41.7%
HT-22 [8]
  Activity: Dde
[9]
  inhibition: 66.5%
[10]
  inhibition: 60.9%
Rattus norvegicus
  Ratio IC50: 4.9
L02 [11]
  Activity: 68.7%
PC-12 [12]
  Activity: 70.2%
L02 [13]
  Activity: 77.3%
L02 [14]
  Activity: Non-Toxic
[15]
  Activity: 54.4%
[16]
  Activity: Active
[17]
  inhibition at 5 µM: 50.1%
Homo sapiens
  Ratio IC50: 2.1
[18]
  Activity: 848 pg/mL
Acetylcholinesterase
  pIC50: 5.21
HT-22 [19]
  Activity: Dde
[20]
  Flu intensity: 6.48
[21]
  Flu intensity: 25.9
[22]
  Flu intensity: 18.4
[23]
  Papp at 100 ug/mL: 16.8 ×10⁻⁶ cm/s
Cholinesterase
  pIC50: 4.69
[24]
  Flu intensity: 9.28
[25]
  inhibition at 10 µM: 68.7%
[26]
  pIC50: 3.54
